These results are taken from ChEMBL document CHEMBL1159169, “Nuclear variations of quinuclidine substance P antagonists: 2-diphenylmethyl-1-azabicyclo[3.2.2]nonan-3-amines” (Bioorg Med Chem Lett, 1993).

In the test the target is Substance-P receptor (Homo sapiens, UniProt P25103). Description: Compound was evaluated for the inhibition of binding of [3H]SP in human IM-9 cells. In kind it is cell-based.
Substance-P receptor, sequence (P25103 whole entry): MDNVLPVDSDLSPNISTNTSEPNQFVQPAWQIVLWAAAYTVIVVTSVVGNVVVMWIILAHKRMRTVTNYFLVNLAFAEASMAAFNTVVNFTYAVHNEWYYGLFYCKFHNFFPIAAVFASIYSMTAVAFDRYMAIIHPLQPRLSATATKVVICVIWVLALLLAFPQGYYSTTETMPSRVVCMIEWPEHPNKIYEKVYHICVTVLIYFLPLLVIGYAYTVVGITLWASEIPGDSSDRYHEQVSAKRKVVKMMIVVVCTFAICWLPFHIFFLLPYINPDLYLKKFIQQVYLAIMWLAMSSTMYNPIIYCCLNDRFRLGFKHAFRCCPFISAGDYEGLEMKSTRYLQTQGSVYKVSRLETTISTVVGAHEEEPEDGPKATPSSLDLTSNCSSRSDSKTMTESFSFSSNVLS

The term IC50 denotes the midpoint of a concentration-inhibition curve. In the case of `COc1ccc(CN[C@H]2C3CCCN(CC3)[C@H]2C(c2ccccc2)c2ccccc2)c(OC)c1` (some centres undefined), the IC50 was determined as 86.3 nM.

Regarding `COc1ccccc1CN[C@H]1C2CCCN(CC2)[C@H]1C(c1ccccc1)c1ccccc1` (some centres undefined), the IC50 was found to be 34.3 nM.

For the compound `Clc1ccccc1CN[C@H]1C2CCCN(CC2)[C@H]1C(c1ccccc1)c1ccccc1` (some centres undefined), the IC50 amounted to 560 nM.

`COc1ccccc1CN[C@H]1C2CCCN(CC2)[C@H]1C(c1ccc(F)cc1)c1ccc(F)cc1` (some centres undefined): the IC50 turned out to be 310 nM.
